In patent publication US20020143059A1, “Skin care product containing retinoids, retinoid booster and phytoestrogens in a dual compartment package” (priority 2000, published 2002):

Tests used:
LRAT = biological target: T1, LRAT (Bos taurus, UniProt Q9BGL2); test: Assay for LRAT activity, RPE microsomes; type: biochemical, bovine; conditions: for % Inhibition LRAT (10 μm): 10 μm compound; for % Inhibition LRAT (100 μm): 100 μm compound
T1 construct: followed by approximately 15 μg of RPE microsomal protein; tissue W. L. Lawson Co., Lincoln, Nebr; host or cells: bovine retinal pigment epithelium microsomes
T1 sequence (Q9BGL2 1-230): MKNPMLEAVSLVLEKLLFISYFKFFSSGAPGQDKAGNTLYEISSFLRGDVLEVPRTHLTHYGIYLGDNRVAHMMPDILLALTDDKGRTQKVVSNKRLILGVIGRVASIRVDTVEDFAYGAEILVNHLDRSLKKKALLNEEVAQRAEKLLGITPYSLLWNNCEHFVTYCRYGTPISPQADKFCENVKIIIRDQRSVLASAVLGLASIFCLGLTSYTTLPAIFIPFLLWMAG
Method: (§1) 50 frozen hemisected bovine eyecups, with the retina and aqueous humor removed were obtained from W. L. Lawson Co., Lincoln, Nebr., USA. The eyes were thawed overnight and the colored iridescent membrane was removed by peeling with forceps. […] The cell suspension was added to the iridescent membranes and the suspension was stirred for several minutes in a beaker with a Teflon stir bar. […] The cell homogenate was centrifuged for 30 min. at 20,000 g (Sorvaal model RC-5B centrifuge with an SS34 rotor in 2.5×10 cm tubes at 14,000 RPM). The resulting supernatant was subjected to further centrifugation for 60 min. at 150,000 g (Beckman model L80 Ultracentrifuge with an SW50.1 rotor in 13×51 mm tubes at 40,000 RPM). The resulting pellets were dispersed into ˜5 mL 0.1M PO4/5 mM DTT, pH 7 buffer using a Heat Systems Ultrasonics, Inc. model W185D Sonifier Cell Disruptor, and the resulting microsomal dispersion was aliquoted into small tubes and stored at −70° C. The protein concentrations of the microsomes were determined using the BioRad Dye binding assay, using BSA as a standard.
(§2) 2.3 Assay for ARAT and LRAT activity (To identify B1)
(§3) The following buffer was prepared and stored at 4° C.: 0.1M PO4/5 mM dithiothreitol, pH 7.0 (PO4/DTT). On the day of the assay, add 2 mg BSA per mL of buffer to give a PO4/DTT/BSA working buffer. 1 mM retinol substrate was prepared in acetonitrile and stored in amber bottles under nitrogen gas at −20° C. Solutions of 4 mM Palmitoyl-CoA in working buffer (stored in aliquots) and 4 mM dilauroyl phosphatidyl choline in ethanol were prepared and stored at −20° C. Inhibitors were prepared as 10 mM stock solutions in H2O, ethanol, acetonitrile or DMSO. The quench solution was prepared using pure ethanol containing 50 μg/mL butylated hydroxytoluene (BHT), and a hexane solution containing 50 μg/mL BHT was used for the extractions.
(§4) Incubate for 5 min. at 37° C. to equilibrate the reaction temperature and then add 5 μL 1 mM retinol. Cap the vials, vortex for 5 seconds and incubate for 30-90 minutes at 37° C. Quench the reaction by adding 0.5 mL ethanol/BHT. Extract the retinoids by adding 3 mL hexane/BHT, vortex the tubes for several seconds several times and centrifuge the tubes at low speed for 5 min. to quickly separate the layers. Remove the upper hexane layer into a clean vial, and re-extract the aqueous layer with another 3 mL hexane/BHT, as described above. Combine the hexane layers and evaporate the hexane by drying at 37° C. under a stream of nitrogen gas on a heated aluminum block. Store the dried residue at −20° C. until HPLC analysis. Quantitate the amount of retinyl palmitate and retinyl laurate for ARAT and LRAT activity, respectively, by integration of the HPLC signal as described below.
(§5) Note that the incubation solution contains 40 μM acyl donor, 100 μM or less inhibitor, 10 μM retinol, approximately 30 μg/mL microsomal protein, and nearly 0.1M PO4, pH 7/5 mM DTT/2 mg/mL BSA. All steps subsequent to the addition of retinol were done in the dark or under amber lights.
(§6) Samples for retinoid quantitation by HPLC were prepared by dissolving the residue in each vial with 100 μL of methanol. […] Aliquots of 60 μL were injected immediately and analyzed for retinoid content.
(§7) Two HPLC protocols were used for retinoid analysis. […] This system consisted of a 20 min. linear gradient from 68:32 (v/v) methanol/ water containing 10 mM ammonium acetate to 4:1 (v/v) methanol:dichloromethane followed by a 5 min. hold at a flow rate of 1 mL/min. The column eluate was monitored from 300 nm to 400 nm.
(§8) These protocols were selected based on their ability to clearly resolve pertinent retinoid acids, alcohols, aldehydes, and/or esters for each assay and relative quickness of separation.

ARAT = test: Assay for ARAT activity, RPE microsomes; type: biochemical, bovine; conditions: for % Inhibition ARAT (100 μm): 100 μm compound; for % Inhibition ARAT (10 μm): 10 μm compound
Method: as §1, §2, §3, §4, §5, §6, §7, §8

| Compound | % Inhibition LRAT (10 μm) (LRAT) | % Inhibition LRAT (100 μm) (LRAT) | % Inhibition ARAT (100 μm) (ARAT) | % Inhibition ARAT (10 μm) (ARAT) |
| --- | --- | --- | --- | --- |
| C/C=C/C(=O)C1=C(C)CCCC1(C)C [Beta-Damascone] | 52% | 92% |  |  |
| CCCC(O)CCC1C(C)CCCC1(C)C (stereo not shown) [Timberol] |  | 33% |  |  |
| Coco Hydroxyethylimidazoline |  | 68% |  |  |
| CC1=CC(C)C(CO)C(C)C1 (stereo not shown) [Isocyclogeraniol] |  | 16% | 18% |  |
| Cocoyl Monoethanolamide |  | 34% | 13% |  |
| CC(=O)C1(C)C2CC3C(C2)C31C (stereo not shown) [Santalone] |  | 12% | 23% |  |
| C/C=C/C(=O)C1C(C)C=CCC1(C)C (stereo not shown) [Delta-Damascone] | 64% | 95% |  |  |
| CCCCC/C=C\C/C=C\CCCCCCCC(=O)NCCCN(C)C [Linoleamidopropyl Dimethylamine] |  |  | 69% +/− 18 |  |
| CC(=O)/C(C)=C/C1C(C)=CCCC1(C)C (stereo not shown) [Gamma-Methyl Ionone] |  | 38% |  |  |
| CC(/C=C/C=C(\C)C(=O)O)=C\C=C\C=C(C)\C=C\C=C(/C)C(=O)O [Crocetin] |  |  | 34% | 15% |
| Coco Trimethylammonium Cl- |  |  | 27% |  |
| Glycerol-PCA-Oleate |  | 58% +/− 2 | 41% +/− 6 |  |
| CC(C)=CCCC(C)CCO (stereo not shown) [Citronellol] |  |  | 30% |  |
| CCN(CC)CC(=O)Nc1c(C)cccc1C [Lidocaine, reference compound] |  |  | 12% |  |
| CCOC(=O)C1=C(C)C=CCC1(C)C [Ethyl Saffranate] |  | 49% |  |  |
| CC=CC(=O)C1CCC(C)(C)C=C1C (stereo not shown) [Isodamascone] |  | 92% | 80% |  |
| CC(C)(O)CCCC1=CCC(C=O)CC1 (stereo not shown) [Lyral] |  |  | 76% |  |

| Compound | % Inhibition LRAT (10 μm) (LRAT) | % Inhibition LRAT (100 μm) (LRAT) | % Inhibition ARAT (100 μm) (ARAT) | % Inhibition ARAT (10 μm) (ARAT) |
| --- | --- | --- | --- | --- |
| O=C1C[C@@H](c2ccc(O)cc2)Oc2cc(O)cc(O)c21 [Naringenin] |  |  | 33% |  |
| CCCCC/C=C/C/C=C/CCCCCCCC(=O)NC(C)c1ccccc1 (stereo not shown) [Melinamide, reference compound] |  |  | 64% +/− 15 |  |
| Isobutyl Ionone |  | 45% | 8% |  |
| CC(C)=CCC/C(C)=C/CC/C(C)=C/CC/C(C)=C/CO [Geranyl Geraniol] |  |  | 81% +/− 6 | 38% +/− 12 |
| CC(C)=CCCC(C)=CCCC(C)=CCO [Farnesol] |  |  | 53% +/− 18 | 23% +/− 18 |
| CCCCCCCC(=O)OC[C@H](COP(=O)(O)OCCN)OC(=O)CCCCCCC [Dioctylphosphatidyl Ethanolamine] | 0% | 17% +/− 17 |  | 23% |
| Santanol |  | 43% | 15% |  |
| CC(=O)c1cc2c(cc1C)C(C)(C)C(C)CC2(C)C (stereo not shown) [Tonalid] |  |  | 50% |  |
| CC(=O)/C=C/C=C(\C)CCC=C(C)C [Pseudoionone] |  | 37% |  |  |
| CCCCCCCCCCCCCC(=O)N(C)CC(=O)O [Myristoyl Sarcosine] |  |  | 41% +/− 14 |  |
| C/C=C/C(=O)C1=C(C)C=CCC1(C)C [Damascenone] | 29% | 79% |  |  |
| CC(=O)c1cc2c(cc1C)C(C)(C)[C@H](C)[C@H]2C(C)C [Traseolide] |  |  | 41% |  |
| CCCCCC(N)=O [Hexanoamide] |  |  | 20% |  |
| CCC(=O)/C=C/C1C(C)=CCCC1(C)C (stereo not drawn) [Alpha-Methyl Ionone] |  | 77% | 67% |  |
| CC(=O)CCC1C(C)=CCCC1(C)C (stereo not drawn) [Dihydro Alpha-Ionone] |  | 18% | 13% |  |
| CC1=CCC(CCC(C)CO)C1(C)C (stereo not shown) [Brahmanol] |  | 75% | 70% |  |
| CC12CCC(C1)C(C)(C)C2O (stereo not shown) [Fenchyl Alcohol] |  |  | 12% |  |
